For series [1], the target named is T1, Nonstructural protein 5A (Hepatitis C virus) (UniProt Q5L478).
T1 sequence (whole entry): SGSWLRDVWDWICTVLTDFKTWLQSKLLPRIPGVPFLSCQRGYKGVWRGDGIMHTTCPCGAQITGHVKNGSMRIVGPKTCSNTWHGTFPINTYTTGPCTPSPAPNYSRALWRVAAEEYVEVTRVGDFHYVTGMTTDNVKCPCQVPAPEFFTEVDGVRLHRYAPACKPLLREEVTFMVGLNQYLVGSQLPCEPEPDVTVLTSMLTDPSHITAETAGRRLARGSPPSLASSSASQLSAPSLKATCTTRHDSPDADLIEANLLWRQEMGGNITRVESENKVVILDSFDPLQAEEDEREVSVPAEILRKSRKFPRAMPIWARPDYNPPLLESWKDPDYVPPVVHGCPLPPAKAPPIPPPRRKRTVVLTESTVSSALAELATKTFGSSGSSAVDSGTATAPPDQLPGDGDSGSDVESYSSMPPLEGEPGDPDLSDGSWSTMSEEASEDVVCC
The series is described as follows: Inhibition of HCV NS5A assessed as antiviral activity against HCV by viral replicon assay. Particulars: Hepacivirus hominis. (A replicon is a self-replicating genome or part of one, used to study replication in cells.)

In the next series the test system is PBMC. The series is described as follows: Cytotoxicity against human PBMC cells. It is filed as cell-based. To be noted: pbmc.
Another series concerns CCRF-CEM. Put plainly: Cytotoxicity against human CEM cells. It is filed as cell-based.
Series [2] is described as follows: Cytotoxicity against human HuH7 cells. It is filed as cell-based, Huh-7.
The next series deals with Vero. Put plainly: Cytotoxicity against african green monkey Vero cells. The class given is cell-based. To be noted: chlorocebus sabaeus.
Another series has as its target Cytochrome P450 2C9 (Homo sapiens, UniProt P11712). The series is described as follows: Inhibition of CYP2C9. It is filed as ADME.
The test system of series [3] is Liver microsomes. Put plainly: Half life in human liver microsomes at 1 uM measured 5 to 60 mins post dose by LC-MS/MS nethod. The class given is ADME, Microsome.
Series [4] concerns Liver microsomes. Put plainly: Intrinsic clearance in human liver microsomes assessed per mg protein at 1 uM measured 5 to 60 mins post dose by LC-MS/MS nethod. The class given is ADME, Microsome. (In general: Microsomes from liver hold many membrane-bound enzymes, among them those of drug oxidation.)
Series [5] is described as follows: Chemical stability in phosphate buffer assessed as compound degradation at pH 3 at 20 degC measured between 1 to 48 hrs during 48 hrs incubation period. Particulars: pH 3, 48 h.
Series [6] in a line: Chemical stability in phosphate buffer assessed as compound degradation at pH 7 at 20 degC measured between 2 to 48 hrs during 48 hrs incubation period. The class given is physicochemical. Particulars: pH 7, 48 h.
The nature of series [7]: Cytotoxicity against human primary lymphocytes. It is filed as cell-based. Particulars: lymphocyte.

pIC50: −log10 of the molar value.

Chain of Cytochrome P450 2C9 (P11712 whole entry): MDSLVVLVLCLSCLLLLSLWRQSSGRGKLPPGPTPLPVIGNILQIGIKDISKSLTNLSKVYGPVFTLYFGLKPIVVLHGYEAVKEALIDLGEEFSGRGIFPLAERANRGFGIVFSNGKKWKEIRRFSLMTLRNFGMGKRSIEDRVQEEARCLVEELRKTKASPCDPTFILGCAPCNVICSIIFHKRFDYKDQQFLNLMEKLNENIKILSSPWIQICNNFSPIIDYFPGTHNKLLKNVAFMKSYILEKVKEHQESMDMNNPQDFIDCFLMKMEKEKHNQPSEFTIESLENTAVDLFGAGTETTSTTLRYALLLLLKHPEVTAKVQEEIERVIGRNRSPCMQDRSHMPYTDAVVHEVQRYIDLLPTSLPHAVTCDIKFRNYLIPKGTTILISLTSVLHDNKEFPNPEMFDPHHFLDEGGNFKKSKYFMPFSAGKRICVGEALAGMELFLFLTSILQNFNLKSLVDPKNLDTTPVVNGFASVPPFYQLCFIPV

With `COC(=O)N[C@H](C(=O)N1CCC[C@H]1c1ncc(-c2ccc(-c3ccc(-c4cnc([C@@H]5CCCN5C(=O)[C@@H](NC(=O)OC)C(C)C)[nH]4)cc3)cc2)[nH]1)C(C)C`, the EC90 in series [1] came out at 20 pM.
Take `COC(=O)N[C@H](C(=O)N1C[C@@H](N=[N+]=[N-])C[C@H]1c1nc(Cl)c(-c2ccc(-c3ccc(-c4[nH]c([C@@H]5C[C@H](N=[N+]=[N-])CN5C(=O)[C@@H](NC(=O)OC)C(C)C)nc4Cl)cc3)cc2)[nH]1)C(C)C`: the CC50 in the series on PBMC was 3.3 µM; in the series with CCRF-CEM, 4 µM; in series [2], more than 1000 nM; with Vero, 98.1 µM. Further, the EC90 in [1] came to 74.6 pM.
In the case of `COC(=O)N[C@H](C(=O)N1C[C@H](n2cc(-c3ccccc3)nn2)C[C@H]1c1ncc(-c2ccc(-c3ccc(-c4cnc([C@@H]5C[C@@H](n6cc(-c7ccccc7)nn6)CN5C(=O)[C@@H](NC(=O)OC)C(C)C)[nH]4)cc3)cc2)[nH]1)C(C)C`, the values for the CC50 (in the series with PBMC; with CCRF-CEM; in [2]) were more than 100 µM, more than 100 µM and more than 1000 nM, respectively. Moreover, in series [1], the EC90 was 9200 pM.
In turn, `COC(=O)N[C@H](C(=O)N1CCC[C@H]1c1nc(-c2ccc(-c3ccc(-c4c[nH]c([C@@H]5CCCN5C(=O)[C@@H](NC(=O)OC)C(C)C)n4)cc3)cc2)c[nH]1)C(C)C` showed a pIC50 at Cytochrome P450 2C9 of 4.23. The same compound showed a t1/2 in the series on Liver microsomes [3] of 56.3 min. The same compound showed a CC50 in [2] of more than 1000 nM.
Consider `COC(=O)N[C@H](C(=O)N1C[C@@H](n2cc(-c3ccccc3)nn2)C[C@H]1c1ncc(-c2ccc(-c3ccc(-c4cnc([C@@H]5C[C@H](n6cc(-c7ccccc7)nn6)CN5C(=O)[C@@H](NC(=O)OC)C(C)C)[nH]4)cc3)cc2)[nH]1)C(C)C`, for which the CC50 was 96 µM in the series with PBMC, more than 1000 nM in series [2] and more than 100 µM in the series with Vero. Also, the EC90 in [1] was more than 10000 pM.
With `COC(=O)N[C@H](C(=O)N1CCC[C@H]1c1nc(-c2ccccc2)c(-c2ccc(-c3ccc(-c4[nH]c([C@@H]5CCCN5C(=O)[C@@H](NC(=O)OC)C(C)C)nc4-c4ccccc4)cc3)cc2)[nH]1)C(C)C`, the CC50 was more than 100 µM in the series on PBMC, 37.4 µM in the series with CCRF-CEM, more than 1000 nM in series [2] and more than 100 µM with Vero. Moreover, in [1], the EC90 amounted to 700 pM.
Turning to `COC(=O)N[C@H](C(=O)N1CCC[C@H]1c1ncc(-c2ccc(-c3ccc(-c4[nH]c([C@@H]5CCCN5C(=O)[C@@H](NC(=O)OC)C(C)C)nc4F)cc3)cc2)[nH]1)C(C)C`, the CC50 in the series with PBMC is 16 µM; in the series on CCRF-CEM, 2.8 µM; in series [2], more than 1000 nM; with Vero it was 83 µM. Also, the EC90 in series [1] is 52.5 pM.
For `COC(=O)N[C@H](C(=O)N1C[C@@H](n2cc(C(=O)OC)nn2)C[C@H]1c1ncc(-c2ccc(-c3ccc(-c4cnc([C@@H]5C[C@H](n6cc(C(=O)OC)nn6)CN5C(=O)[C@@H](NC(=O)OC)C(C)C)[nH]4)cc3)cc2)[nH]1)C(C)C`, the CC50 in the series with PBMC was more than 100 µM; in the series on CCRF-CEM it was more than 100 µM; in [2], more than 1000 nM. Further, the EC90 in [1] was more than 10000 pM.
`COC(=O)N[C@H](C(=O)N1C[C@H](N=[N+]=[N-])C[C@H]1c1nc(Br)c(-c2ccc(-c3ccc(-c4[nH]c([C@@H]5C[C@@H](N=[N+]=[N-])CN5C(=O)[C@@H](NC(=O)OC)C(C)C)nc4Br)cc3)cc2)[nH]1)C(C)C`: the CC50 with PBMC is 19.8 µM; in the series on CCRF-CEM, 10.8 µM; in [2], more than 1000 nM; in the series with Vero, more than 100 µM. The EC90 in series [1] is 21.6 pM.
As for `COC(=O)N[C@H](C(=O)N1CCC[C@H]1c1nc(-c2cccs2)c(-c2ccc(-c3ccc(-c4[nH]c([C@@H]5CCCN5C(=O)[C@@H](NC(=O)OC)C(C)C)nc4-c4cccs4)cc3)cc2)[nH]1)C(C)C`, the CC50 is 44.6 µM with PBMC, more than 100 µM in the series on CCRF-CEM, more than 1000 nM in series [2] and more than 100 µM in the series with Vero. Also, the EC90 in series [1] was found to be 300 pM.
As to `COC(=O)N[C@H](C(=O)N1C[C@@H](N=[N+]=[N-])C[C@H]1c1ncc(-c2ccc(-c3ccc(-c4cnc([C@@H]5C[C@H](N=[N+]=[N-])CN5C(=O)[C@@H](NC(=O)OC)C(C)C)[nH]4)cc3)cc2)[nH]1)C(C)C`, the CC50 with PBMC is 20.3 µM; in the series on CCRF-CEM it was 18.4 µM; in [2], more than 1000 nM; in the series with Vero, more than 100 µM. Besides, the EC90 in [1] was 35.2 pM.
For the compound `COC(=O)N[C@H](C(=O)N1C[C@H](n2cc(C(=O)OC)nn2)C[C@H]1c1ncc(-c2ccc(-c3ccc(-c4cnc([C@@H]5C[C@@H](n6cc(C(=O)OC)nn6)CN5C(=O)[C@@H](NC(=O)OC)C(C)C)[nH]4)cc3)cc2)[nH]1)C(C)C`, the CC50 in the series on PBMC is 6.6 µM; in the series with CCRF-CEM, 10.7 µM; in series [2] it was more than 1000 nM; with Vero, more than 100 µM. Also, the EC90 in series [1] was found to be 42.8 pM.
For the compound `COC(=O)N[C@H](C(=O)N1C[C@H](N=[N+]=[N-])C[C@H]1c1nc(Cl)c(-c2ccc(-c3ccc(-c4[nH]c([C@@H]5C[C@@H](N=[N+]=[N-])CN5C(=O)[C@@H](NC(=O)OC)C(C)C)nc4Cl)cc3)cc2)[nH]1)C(C)C`, the CC50 was 7.8 µM in the series with PBMC, 3.8 µM in the series on CCRF-CEM, more than 1000 nM in series [2] and more than 100 µM in the series with Vero. In series [1], the EC90 amounted to 9.6 pM.
For `COC(=O)N[C@H](C(=O)N1C[C@@H](N=[N+]=[N-])C[C@H]1c1nc(Br)c(-c2ccc(-c3ccc(-c4[nH]c([C@@H]5C[C@H](N=[N+]=[N-])CN5C(=O)[C@@H](NC(=O)OC)C(C)C)nc4Br)cc3)cc2)[nH]1)C(C)C`, the CC50 is 3.4 µM with PBMC, 4.5 µM with CCRF-CEM and more than 1000 nM in series [2]. Also, the EC90 in series [1] was found to be 55.3 pM.
Take `COC(=O)N[C@H](C(=O)N1C[C@H](N=[N+]=[N-])C[C@H]1c1ncc(-c2ccc(-c3ccc(-c4[nH]c([C@@H]5C[C@@H](N=[N+]=[N-])CN5C(=O)[C@@H](NC(=O)OC)C(C)C)nc4Cl)cc3)cc2)[nH]1)C(C)C`: the CC50 in the series with PBMC was 9.7 µM; in the series with CCRF-CEM, 31 µM; in [2] it was more than 1000 nM; with Vero, more than 100 µM. In series [1], the EC90 came to 29.5 pM.
As to `COC(=O)N[C@H](C(=O)N1CCC[C@H]1c1nc(-c2ccco2)c(-c2ccc(-c3ccc(-c4[nH]c([C@@H]5CCCN5C(=O)[C@@H](NC(=O)OC)C(C)C)nc4-c4ccco4)cc3)cc2)[nH]1)C(C)C`, the CC50 in the series on PBMC is 49.2 µM; with CCRF-CEM, 2.9 µM; in series [2], more than 1000 nM; in the series on Vero, more than 100 µM. For the same compound, the EC90 in series [1] was 97 pM.
In the series on Liver microsomes [4], `COC(=O)N[C@H](C(=O)N1CCC[C@H]1c1nc(Br)c(-c2ccc(-c3ccc(-c4[nH]c([C@@H]5CCCN5C(=O)[C@@H](NC(=O)OC)C(C)C)nc4Br)cc3)cc2)[nH]1)C(C)C` showed a CLint of 10.3 µL/min/mg. Also, the t1/2 in the series with Liver microsomes [3] is recorded as 67.3 min. For the same compound, the Stability entry in series [5] and in series [6] was “Stable” in each case. For the same compound, the CC50 with PBMC was 2.9 µM; in the series on CCRF-CEM it was 5.7 µM; in [2] it was more than 1000 nM; in the series on Vero, 84 µM. In addition, in series [1], the EC90 was determined as 14 pM.
Turning to `COC(=O)N[C@H](C(=O)N1CCC[C@H]1c1nc(I)c(-c2ccc(-c3ccc(-c4[nH]c([C@@H]5CCCN5C(=O)[C@@H](NC(=O)OC)C(C)C)nc4I)cc3)cc2)[nH]1)C(C)C`, in the series with Liver microsomes [4], the CLint is 18 µL/min/mg. In the series on Liver microsomes [3], this compound yielded a t1/2 of 38.5 min. Besides, the Stability result in series [5] and in [6] was “Stable” throughout. For the same compound, the CC50 was 4.7 µM in the series with PBMC, 35 µM in the series with CCRF-CEM, more than 1000 nM in [2] and more than 100 µM in the series with Vero. For the same compound, the EC90 in series [1] was 11 pM. Further, in [7], the Activity result is “Toxic”.

Broadly, the EC90 is the concentration at which the effect reaches the 90% level. The term CC50 denotes the concentration at which the toxic effect on the cells reaches its halfway point. One may read the pIC50 as −log10 of the IC50, conventionally taken in molar units.

The record behind these values is ChEMBL document CHEMBL2046362, “Synthesis and evaluation of novel potent HCV NS5A inhibitors” (Bioorg Med Chem Lett, 2012).
